Reference: US20090105270A1, “Kinase inhibition and anticancer therapy” (priority 2007, published 2009)

Columns and labels:
CDK2/cyclinE(h) = target: T1, CDK2/cyclinE(h) (Homo sapiens, UniProt P24941); assay: Upstate kinase activity inhibition assay CDK2/cyclinE(h); type: biochemical; conditions: 4 μM Compound E
T1 construct: purchased Upstate (KinaseProfiler service)

Fyn(h) = target: T2, Fyn(h) (Homo sapiens, UniProt P06241); assay: Upstate kinase activity inhibition assay Fyn(h); type: biochemical; conditions: 40 min; read-out: percentage of enzyme activity that remains
T2 construct: purchased Upstate (KinaseProfiler service)

Hck(h) = target: T3, Hck(h) (Homo sapiens, UniProt P08631); assay: Upstate kinase activity inhibition assay Hck(h); type: biochemical; conditions: 40 min; read-out: percentage of enzyme activity that remains
T3 construct: purchased Upstate (KinaseProfiler service)

LIMK1(h) = target: T4, LIMK1(h) (Homo sapiens, UniProt P53667); assay: Upstate kinase activity inhibition assay LIMK1(h); type: biochemical; conditions: 40 min; read-out: percentage of enzyme activity that remains
T4 construct: purchased Upstate (KinaseProfiler service)

MAPK2(h) = target: T5, MAPK2(h) (Homo sapiens, UniProt P28482); assay: Upstate kinase activity inhibition assay MAPK2(h); type: biochemical; conditions: 40 min; read-out: percentage of enzyme activity that remains
T5 construct: purchased Upstate (KinaseProfiler service)

Mnk2(h) = target: T6, Mnk2(h) (Homo sapiens, UniProt Q9HBH9); assay: Upstate kinase activity inhibition assay Mnk2(h); type: biochemical; conditions: 40 min; read-out: percentage of enzyme activity that remains
T6 construct: purchased Upstate (KinaseProfiler service)

MRCKβ(h) = target: T7, MRCKβ(h) (Homo sapiens, UniProt Q9Y5S2); assay: Upstate kinase activity inhibition assay MRCKβ(h); type: biochemical; conditions: 40 min; read-out: percentage of enzyme activity that remains
T7 construct: purchased Upstate (KinaseProfiler service)

MST1(h) = target: T8, MST1(h) (Homo sapiens, UniProt Q13043); assay: Upstate kinase activity inhibition assay MST1(h); type: biochemical
T8 construct: purchased Upstate (KinaseProfiler service)

PASK(h) = target: T9, PASK(h) (Homo sapiens, UniProt Q96RG2); assay: Upstate kinase activity inhibition assay PASK(h); type: biochemical; conditions: 40 min; read-out: percentage of enzyme activity that remains
T9 construct: purchased Upstate (KinaseProfiler service)

PDK1(h) = target: T10, PDK1(h) (Homo sapiens, UniProt O15530); assay: Upstate kinase activity inhibition assay PDK1(h); type: biochemical; conditions: 40 min; read-out: percentage of enzyme activity that remains
T10 construct: purchased Upstate (KinaseProfiler service)

Ros(h) = target: T11, Ros(h) (Homo sapiens, UniProt P08922); assay: Upstate kinase activity inhibition assay Ros(h); type: biochemical; conditions: 40 min; read-out: percentage of enzyme activity that remains
T11 construct: purchased Upstate (KinaseProfiler service)

Yes(h) = Yes(h) (Homo sapiens, UniProt P07947); assay: Upstate kinase activity inhibition assay Yes(h); conditions: 40 min, read-out: percentage of enzyme activity that remains
NEK2(h) = NEK2(h) (Homo sapiens, UniProt P51955); assay: Upstate kinase activity inhibition assay NEK2(h); conditions: 40 min, read-out: percentage of enzyme activity that remains
NLK (h) = NLK (h) (Homo sapiens, UniProt Q9UBE8); assay: Upstate kinase activity inhibition assay NLK (h); conditions: 40 min, read-out: percentage of enzyme activity that remains
PAK5(h) = PAK5(h) (Homo sapiens, UniProt Q9P286); assay: Upstate kinase activity inhibition assay PAK5(h); conditions: 40 min, read-out: percentage of enzyme activity that remains
PKBβ(h) = PKBβ(h) (Homo sapiens, UniProt P31751); assay: Upstate kinase activity inhibition assay PKBβ(h); conditions: 40 min, read-out: percentage of enzyme activity that remains
Rsk2(h) = Rsk2(h) (Homo sapiens, UniProt P51812); assay: Upstate kinase activity inhibition assay Rsk2(h); conditions: 40 min, read-out: percentage of enzyme activity that remains
Rsk3(h) = Rsk3(h) (Homo sapiens, UniProt Q15349); assay: Upstate kinase activity inhibition assay Rsk3(h); conditions: 40 min, read-out: percentage of enzyme activity that remains
SGK3(h) = SGK3(h) (Homo sapiens, UniProt Q96BR1); assay: Upstate kinase activity inhibition assay SGK3(h); conditions: 40 min, read-out: percentage of enzyme activity that remains
ZIPK(h) = ZIPK(h) (Homo sapiens, UniProt O43293); assay: Upstate kinase activity inhibition assay ZIPK(h); conditions: 40 min, read-out: percentage of enzyme activity that remains
EphA1(h) = EphA1(h) (Homo sapiens, UniProt P21709); assay: Upstate kinase activity inhibition assay EphA1(h); conditions: 40 min, read-out: percentage of enzyme activity that remains
EphA2(h) = EphA2(h) (Homo sapiens, UniProt P29317); assay: Upstate kinase activity inhibition assay EphA2(h); conditions: 40 min, read-out: percentage of enzyme activity that remains
EphB3(h) = EphB3(h) (Homo sapiens, UniProt P54753); assay: Upstate kinase activity inhibition assay EphB3(h); conditions: 40 min, read-out: percentage of enzyme activity that remains
ErbB4(h) = ErbB4(h) (Homo sapiens, UniProt Q15303); assay: Upstate kinase activity inhibition assay ErbB4(h); conditions: 40 min, read-out: percentage of enzyme activity that remains
GSK3α(h) = GSK3α(h) (Homo sapiens, UniProt P49840); assay: Upstate kinase activity inhibition assay GSK3α(h); conditions: 40 min, read-out: percentage of enzyme activity that remains
MRCKα(h) = MRCKα(h) (Homo sapiens, UniProt Q5VT25); assay: Upstate kinase activity inhibition assay MRCKα(h); conditions: 40 min, read-out: percentage of enzyme activity that remains
RIPK2(h) = RIPK2(h) (Homo sapiens, UniProt O43353); assay: Upstate kinase activity inhibition assay RIPK2(h); conditions: 40 min, read-out: percentage of enzyme activity that remains
TSSK1(h) = TSSK1(h) (Homo sapiens, UniProt Q9BXA7); assay: Upstate kinase activity inhibition assay TSSK1(h); conditions: 40 min, read-out: percentage of enzyme activity that remains
IGF-1R(h) = IGF-1R(h) (Homo sapiens, UniProt P08069); assay: Upstate kinase activity inhibition assay IGF-1R(h); conditions: 40 min, read-out: percentage of enzyme activity that remains
JNK2α2(h) = JNK2α2(h) (Homo sapiens, UniProt P45984); assay: Upstate kinase activity inhibition assay JNK2α2(h)

T3 sequence (P08631 whole entry): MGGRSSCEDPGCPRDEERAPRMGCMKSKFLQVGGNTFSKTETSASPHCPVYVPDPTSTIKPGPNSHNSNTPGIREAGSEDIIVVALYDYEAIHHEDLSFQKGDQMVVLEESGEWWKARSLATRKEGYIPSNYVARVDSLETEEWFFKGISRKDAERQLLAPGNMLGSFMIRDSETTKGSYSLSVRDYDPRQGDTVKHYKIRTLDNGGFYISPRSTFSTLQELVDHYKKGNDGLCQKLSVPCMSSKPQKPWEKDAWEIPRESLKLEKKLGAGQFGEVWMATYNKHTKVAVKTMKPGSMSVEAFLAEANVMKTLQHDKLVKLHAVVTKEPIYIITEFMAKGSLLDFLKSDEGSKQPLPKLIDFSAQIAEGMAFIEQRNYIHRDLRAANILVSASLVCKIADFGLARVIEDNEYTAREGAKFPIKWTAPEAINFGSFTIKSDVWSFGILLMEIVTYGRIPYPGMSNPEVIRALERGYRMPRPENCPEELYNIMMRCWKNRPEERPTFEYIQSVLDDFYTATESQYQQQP
Chain of ErbB4(h) (Q15303 26-1308): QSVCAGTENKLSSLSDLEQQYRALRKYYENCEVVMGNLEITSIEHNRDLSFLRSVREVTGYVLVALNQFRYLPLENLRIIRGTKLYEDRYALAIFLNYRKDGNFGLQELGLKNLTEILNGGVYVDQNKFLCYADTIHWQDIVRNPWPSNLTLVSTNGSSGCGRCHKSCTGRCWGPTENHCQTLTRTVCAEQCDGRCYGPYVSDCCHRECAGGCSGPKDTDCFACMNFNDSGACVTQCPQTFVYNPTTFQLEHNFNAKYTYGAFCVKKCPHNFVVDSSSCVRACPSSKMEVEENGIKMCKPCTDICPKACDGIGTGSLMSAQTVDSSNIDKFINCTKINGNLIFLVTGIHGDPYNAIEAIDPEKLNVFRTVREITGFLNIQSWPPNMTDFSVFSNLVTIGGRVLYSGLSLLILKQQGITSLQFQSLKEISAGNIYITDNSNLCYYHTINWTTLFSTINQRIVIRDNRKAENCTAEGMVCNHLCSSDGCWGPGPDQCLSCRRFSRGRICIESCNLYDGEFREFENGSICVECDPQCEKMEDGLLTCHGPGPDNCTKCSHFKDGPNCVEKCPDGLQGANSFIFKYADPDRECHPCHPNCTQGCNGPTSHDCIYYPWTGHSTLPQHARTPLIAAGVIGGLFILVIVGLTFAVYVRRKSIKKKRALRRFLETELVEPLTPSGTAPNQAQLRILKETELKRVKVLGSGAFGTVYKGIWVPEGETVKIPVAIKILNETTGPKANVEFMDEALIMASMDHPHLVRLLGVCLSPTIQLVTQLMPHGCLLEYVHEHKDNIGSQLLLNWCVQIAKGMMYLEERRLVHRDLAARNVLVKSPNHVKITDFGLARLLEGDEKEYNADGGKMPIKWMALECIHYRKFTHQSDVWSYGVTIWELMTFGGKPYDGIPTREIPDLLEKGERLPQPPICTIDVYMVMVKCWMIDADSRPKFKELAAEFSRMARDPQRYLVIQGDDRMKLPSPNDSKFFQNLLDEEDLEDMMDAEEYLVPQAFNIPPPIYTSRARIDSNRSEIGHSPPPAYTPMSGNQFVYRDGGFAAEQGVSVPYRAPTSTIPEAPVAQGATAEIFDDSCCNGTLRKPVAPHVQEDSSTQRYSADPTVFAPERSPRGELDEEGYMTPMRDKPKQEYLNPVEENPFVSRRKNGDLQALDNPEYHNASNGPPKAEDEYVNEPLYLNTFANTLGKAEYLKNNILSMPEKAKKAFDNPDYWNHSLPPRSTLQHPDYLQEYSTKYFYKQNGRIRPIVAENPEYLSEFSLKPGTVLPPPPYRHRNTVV
T4 sequence (P53667 whole entry): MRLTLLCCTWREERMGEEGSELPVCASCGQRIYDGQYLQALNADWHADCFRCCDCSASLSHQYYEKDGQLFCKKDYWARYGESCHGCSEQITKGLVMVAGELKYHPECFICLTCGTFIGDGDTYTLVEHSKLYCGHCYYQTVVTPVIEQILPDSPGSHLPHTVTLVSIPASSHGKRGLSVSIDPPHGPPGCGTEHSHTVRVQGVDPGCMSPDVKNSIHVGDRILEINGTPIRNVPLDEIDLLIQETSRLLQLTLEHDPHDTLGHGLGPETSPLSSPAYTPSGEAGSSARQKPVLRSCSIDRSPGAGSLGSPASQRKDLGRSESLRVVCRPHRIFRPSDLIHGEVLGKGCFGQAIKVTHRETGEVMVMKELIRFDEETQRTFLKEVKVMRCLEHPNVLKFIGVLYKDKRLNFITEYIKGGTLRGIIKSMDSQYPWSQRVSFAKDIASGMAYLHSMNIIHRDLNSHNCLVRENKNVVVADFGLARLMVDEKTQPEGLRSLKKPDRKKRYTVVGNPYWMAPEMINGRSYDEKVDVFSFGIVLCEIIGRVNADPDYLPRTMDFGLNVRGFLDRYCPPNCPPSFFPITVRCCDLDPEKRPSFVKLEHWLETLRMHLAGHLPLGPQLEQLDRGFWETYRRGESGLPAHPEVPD
Chain of PAK5(h) (Q9P286 whole entry): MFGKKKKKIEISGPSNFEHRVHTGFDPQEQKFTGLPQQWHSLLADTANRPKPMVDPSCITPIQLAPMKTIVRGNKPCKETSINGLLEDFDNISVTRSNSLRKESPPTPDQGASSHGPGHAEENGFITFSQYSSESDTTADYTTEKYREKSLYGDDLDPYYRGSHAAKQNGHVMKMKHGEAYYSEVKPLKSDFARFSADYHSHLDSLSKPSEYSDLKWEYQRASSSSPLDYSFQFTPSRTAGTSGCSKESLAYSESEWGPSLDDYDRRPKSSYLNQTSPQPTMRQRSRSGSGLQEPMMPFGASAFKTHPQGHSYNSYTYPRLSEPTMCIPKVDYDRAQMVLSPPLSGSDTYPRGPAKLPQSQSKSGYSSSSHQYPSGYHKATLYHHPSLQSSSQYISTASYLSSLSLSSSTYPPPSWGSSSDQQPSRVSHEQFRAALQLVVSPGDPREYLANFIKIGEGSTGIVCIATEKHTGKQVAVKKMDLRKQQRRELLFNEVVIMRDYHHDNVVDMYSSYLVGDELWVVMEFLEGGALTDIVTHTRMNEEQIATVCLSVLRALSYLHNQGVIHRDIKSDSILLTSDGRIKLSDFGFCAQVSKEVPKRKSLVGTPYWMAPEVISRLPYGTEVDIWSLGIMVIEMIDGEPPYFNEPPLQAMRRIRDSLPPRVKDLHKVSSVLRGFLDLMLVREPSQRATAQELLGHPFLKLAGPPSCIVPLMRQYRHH
Chain of EphB3(h) (P54753 34-998): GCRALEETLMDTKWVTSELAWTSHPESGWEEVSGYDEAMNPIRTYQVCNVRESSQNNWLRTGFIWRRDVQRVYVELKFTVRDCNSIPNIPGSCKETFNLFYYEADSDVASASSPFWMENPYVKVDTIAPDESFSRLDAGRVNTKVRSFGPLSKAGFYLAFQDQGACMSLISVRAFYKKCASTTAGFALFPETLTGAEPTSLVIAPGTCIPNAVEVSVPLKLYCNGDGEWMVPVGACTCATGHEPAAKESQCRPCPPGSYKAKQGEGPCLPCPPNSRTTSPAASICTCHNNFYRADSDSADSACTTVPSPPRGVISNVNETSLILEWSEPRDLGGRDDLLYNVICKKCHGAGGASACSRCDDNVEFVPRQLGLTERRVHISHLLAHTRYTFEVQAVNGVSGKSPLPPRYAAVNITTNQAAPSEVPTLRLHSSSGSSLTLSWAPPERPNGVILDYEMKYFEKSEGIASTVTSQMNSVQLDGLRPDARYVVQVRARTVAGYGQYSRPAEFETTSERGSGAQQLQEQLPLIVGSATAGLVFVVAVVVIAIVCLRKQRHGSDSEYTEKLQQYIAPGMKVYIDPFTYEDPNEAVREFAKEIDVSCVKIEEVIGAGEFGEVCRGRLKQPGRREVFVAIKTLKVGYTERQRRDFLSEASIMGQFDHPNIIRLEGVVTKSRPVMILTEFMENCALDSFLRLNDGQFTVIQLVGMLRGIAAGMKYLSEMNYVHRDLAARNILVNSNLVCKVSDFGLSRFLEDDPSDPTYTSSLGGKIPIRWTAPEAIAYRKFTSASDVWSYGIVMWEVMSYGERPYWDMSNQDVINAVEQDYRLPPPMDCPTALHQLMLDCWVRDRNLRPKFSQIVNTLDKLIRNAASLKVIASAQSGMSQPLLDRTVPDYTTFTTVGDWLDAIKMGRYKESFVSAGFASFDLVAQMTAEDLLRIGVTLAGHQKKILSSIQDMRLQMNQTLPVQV
Chain of TSSK1(h) (Q9BXA7 whole entry): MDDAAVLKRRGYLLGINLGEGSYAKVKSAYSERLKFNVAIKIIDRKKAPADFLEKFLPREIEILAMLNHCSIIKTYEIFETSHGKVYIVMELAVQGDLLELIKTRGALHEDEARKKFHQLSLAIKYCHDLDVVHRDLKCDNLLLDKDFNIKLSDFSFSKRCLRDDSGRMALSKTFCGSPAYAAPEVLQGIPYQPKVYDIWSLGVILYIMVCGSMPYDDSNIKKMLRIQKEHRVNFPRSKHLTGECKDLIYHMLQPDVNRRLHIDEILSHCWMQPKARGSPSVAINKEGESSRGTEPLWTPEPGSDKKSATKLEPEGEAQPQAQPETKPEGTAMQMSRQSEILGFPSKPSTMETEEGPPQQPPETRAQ
Chain of Yes(h) (P07947 whole entry): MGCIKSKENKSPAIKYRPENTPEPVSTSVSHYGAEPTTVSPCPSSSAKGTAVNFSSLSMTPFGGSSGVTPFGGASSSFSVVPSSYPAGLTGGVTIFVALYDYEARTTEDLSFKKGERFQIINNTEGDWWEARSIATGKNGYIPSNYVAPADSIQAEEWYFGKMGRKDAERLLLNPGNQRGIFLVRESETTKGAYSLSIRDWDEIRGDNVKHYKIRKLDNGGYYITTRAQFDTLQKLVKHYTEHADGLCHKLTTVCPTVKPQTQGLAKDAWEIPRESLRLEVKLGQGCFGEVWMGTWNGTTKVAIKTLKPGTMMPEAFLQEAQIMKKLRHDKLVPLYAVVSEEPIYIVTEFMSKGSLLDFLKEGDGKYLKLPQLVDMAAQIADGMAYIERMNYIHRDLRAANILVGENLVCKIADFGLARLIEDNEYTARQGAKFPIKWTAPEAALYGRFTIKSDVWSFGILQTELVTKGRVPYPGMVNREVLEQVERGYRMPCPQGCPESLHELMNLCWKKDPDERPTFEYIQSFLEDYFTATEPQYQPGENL

Compound: Cc1cc(Nc2cc(N3CCN(C)CC3)nc(Sc3ccc(NC(=O)C4CC4)cc3)n2)n[nH]1 [Compound E, Cyclopropane carboxylic acid {4-[4-(4-methyl-piperazin-1-yl)-6-(5-methyl-2H-pyrazol-3-ylamino)-pyrimidin-2-ylsulphanyl]-phenyl}-amide]
- percentage of enzyme activity that remains (CDK2/cyclinE(h)): 125%
- remaining activity at 4 µM (Fyn(h)): 4%
- remaining activity at 0.2 µM (Hck(h)): 98%
- remaining activity at 4 µM (Hck(h)): 45%
- remaining activity at 0.2 µM (LIMK1(h)): 71%
- remaining activity at 4 µM (LIMK1(h)): 15%
- remaining activity at 0.2 µM (MAPK2(h)): 92%
- remaining activity at 4 µM (Mnk2(h)): 96%
- remaining activity at 4 µM (MRCKβ(h)): 100%
- percentage of enzyme activity that remains (MST1(h); 0.2 μM Compound E): 88%
- percentage of enzyme activity that remains (MST1(h); 4 μM Compound E): 38%
- remaining activity at 0.2 µM (PASK(h)): 98%
- remaining activity at 0.2 µM (PDK1(h)): 97%
- remaining activity at 4 µM (PDK1(h)): 86%
- remaining activity at 4 µM (Ros(h)): 80%
- remaining activity at 0.2 µM (Yes(h)): 39%
- remaining activity at 4 µM (Yes(h)): 2%
- remaining activity at 0.2 µM (NEK2(h)): 112%
- remaining activity at 4 µM (NEK2(h)): 109%
- remaining activity at 0.2 µM (NLK (h)): 105%
- remaining activity at 4 µM (NLK (h)): 99%
- remaining activity at 0.2 µM (PAK5(h)): 93%
- remaining activity at 4 µM (PAK5(h)): 68%
- remaining activity at 0.2 µM (PKBβ(h)): 105%
- remaining activity at 4 µM (PKBβ(h)): 85%
- remaining activity at 0.2 µM (Rsk2(h)): 109%
- remaining activity at 4 µM (Rsk2(h)): 82%
- remaining activity at 0.2 µM (Rsk3(h)): 96%
- remaining activity at 4 µM (Rsk3(h)): 60%
- remaining activity at 0.2 µM (SGK3(h)): 103%
- remaining activity at 4 µM (SGK3(h)): 87%
- remaining activity at 0.2 µM (ZIPK(h)): 100%
- remaining activity at 0.2 µM (EphA1(h)): 93%
- remaining activity at 4 µM (EphA1(h)): 27%
- remaining activity at 0.2 µM (EphA2(h)): 78%
- remaining activity at 4 µM (EphA2(h)): 10%
- remaining activity at 0.2 µM (EphB3(h)): 99%
- remaining activity at 4 µM (EphB3(h)): 89%
- remaining activity at 0.2 µM (ErbB4(h)): 53%
- remaining activity at 4 µM (ErbB4(h)): 52%
- remaining activity at 0.2 µM (GSK3α(h)): 106%
- remaining activity at 4 µM (GSK3α(h)): 102%
- remaining activity at 0.2 µM (MRCKα(h)): 96%
- remaining activity at 4 µM (MRCKα(h)): 99%
- remaining activity at 0.2 µM (RIPK2(h)): 107%
- remaining activity at 4 µM (RIPK2(h)): 105%
- remaining activity at 0.2 µM (TSSK1(h)): 122%
- remaining activity at 4 µM (TSSK1(h)): 99%
- remaining activity at 0.2 µM (IGF-1R(h)): 76%
- remaining activity at 4 µM (IGF-1R(h)): 26%
- percentage of enzyme activity that remains (JNK2α2(h); 0.2 μM Compound E): 107%
- percentage of enzyme activity that remains (JNK2α2(h); 4 μM Compound E): 105%
